From patent US8779004B2, “Stable emulsion formulations” (Amgen, Inc., priority 2006, dated 2014)
Marks after values point to notes of the source that are not given here.

Legend:
Assay type in all cases: physicochemical
[1] = pH and particle size of crude cinacalcet emulsions with different oils and phospholipids
Method: Table 4 illustrates the effect of different oils and phospholipids on pH and particle size of crude emulsions prepared for cinacalcet. The particle size distribution of the droplets was measured using light diffraction techniques after dilution of the emulsion in water. The particle size is represented by D(4,3) which is the volume corrected mean of the particles (units). As used herein, SBO—soybean oil (long chain triglycerides); MCT—medium chain triglycerides; STG—structured triglycerides (including PEGylated oils)
Coarse prototype emulsion formulations were prepared at a batch size of 10 mLs by an Ultraturrax T25 S1 Janke and Kunkel blade homogenizer equipped with a 10 mm rotostator, followed by sonication from a Vibracell Ultrasonicator with a titanium microtip probe. Batches at a 40 mL size were prepared in a similar manner, with the exception of the ultrasonicator having a ¾″ titanium probe tip.
Coarse prototype emulsions at a batch size of 10-40 mLs were prepared by mixing the oil with lecithin by a blade mixer at 60° C. protected by a nitrogen headspace. Cinacalcet was added and mixed well, followed by the addition of the aqueous phase containing glycerin and buffer until a homogenous mixture was made. A sonicator probe was used to further process the emulsion premix while maintaining the nitrogen headspace. Coarse emulsions prepared by sonication were centrifuged at 3K RPM to remove gross particulates on a Dupont Sorval centrifuge, and dispensed by removal of the top contents of the emulsion for evaluation.

[2] = Effect of pH and buffer type on emulsion stability (pH, particle size before/after one autoclave cycle); settings: after one autoclave cycle, 2% egg lecithin
Method: Tables 6 summarizes the effect of pH and the buffer type on emulsion stability as measured by the particle size. Emulsions were made using 2% egg lecithin, 2.25% glycerin in water for injection. Particle size and pH were measured after one-autoclave cycle. For all emulsions, particle size before autoclaving as represented by D(4,3) was in a range of 0.30 to 0.45 μm. Emulsions were stable at high pH using TRIS and DEA buffer, and at low pH using phosphate buffer over varying concentrations of cinacalcet and soybean oil. Closer to pH 7 using phosphate buffer, increase in particle size was seen after autoclaving.
Particle size data is reported as D(4,3) before and after one autoclaving cycle.

[3] = pH and particle size of crude cinacalcet emulsions with different oils and phospholipids; set-up: unit not given here; settings: emulsion; STG 20%; 1% Purified Soy Lecithin; after a single autoclaving cycle
[4] = crude emulsion, MCT 5%, 1% Purified Egg Lecithin
[5] = crude emulsion, MCT 5%, 1% Purified Soy Lecithin
[6] = crude emulsion, MCT 5%, 2% Purified Egg Lecithin
[7] = crude emulsion, MCT 5%, % Purified Soy Lecithin
[8] = crude emulsion, MCT 10%, 1% Purified Egg Lecithin
[9] = crude emulsion, MCT 10%, 1% Purified Soy Lecithin
[10] = crude emulsion, MCT 10%, 2% Purified Egg Lecithin
[11] = crude emulsion, MCT 10%, % Purified Soy Lecithin
[12] = crude emulsion, MCT 20%, 1% Purified Egg Lecithin
[13] = crude emulsion, MCT 20%, 1% Purified Soy Lecithin
[14] = crude emulsion, MCT 20%, 2% Purified Egg Lecithin
[15] = crude emulsion, MCT 20%, % Purified Soy Lecithin
[16] = crude emulsion, SBO 5%, 1% Purified Egg Lecithin
[17] = crude emulsion, SBO 5%, 1% Purified Soy Lecithin
[18] = crude emulsion, SBO 5%, 2% Purified Egg Lecithin
[19] = crude emulsion, SBO 5%, % Purified Soy Lecithin
[20] = crude emulsion, SBO 10%, 1% Purified Egg Lecithin
[21] = crude emulsion, SBO 10%, 1% Purified Soy Lecithin
[22] = crude emulsion, SBO 10%, 2% Purified Egg Lecithin
[23] = crude emulsion, SBO 10%, % Purified Soy Lecithin
[24] = crude emulsion, SBO 20%, 1% Purified Egg Lecithin
[25] = crude emulsion, SBO 20%, 1% Purified Soy Lecithin
[26] = crude emulsion, SBO 20%, 2% Purified Egg Lecithin
[27] = crude emulsion, SBO 20%, % Purified Soy Lecithin
[28] = crude emulsion, STG 5%, 1% Purified Egg Lecithin
[29] = crude emulsion, STG 5%, 2% Purified Egg Lecithin
[30] = crude emulsion, STG 10%, 1% Purified Egg Lecithin
[31] = crude emulsion, STG 10%, 2% Purified Egg Lecithin
[32] = crude emulsion, STG 20%, 1% Purified Egg Lecithin
[33] = crude emulsion, STG 20%, 2% Purified Egg Lecithin
[34] = DEA 0.05%, target cinacalcet 1 mg/mL, SBO conc. 10
[35] = DEA 0.05%, target cinacalcet 5 mg/mL, SBO conc. 5
[36] = DEA 0.05%, target cinacalcet 10 mg/mL, SBO conc. 10
[37] = DEA 0.1%, target cinacalcet 5 mg/mL, SBO conc. 5
[38] = DEA 0.2%, target cinacalcet 5 mg/mL, SBO conc. 5
[39] = DEA 0.3%, target cinacalcet 5 mg/mL, SBO conc. 5
[40] = No buffer, target cinacalcet 5 mg/mL, SBO conc. 10
[41] = PO4 buffer 15 mM, target cinacalcet 5 mg/mL, SBO conc. 10
[42] = TRIS 5 mM, target cinacalcet 1 mg/mL, SBO conc. 10
[43] = TRIS 5 mM, target cinacalcet 5 mg/mL, SBO conc. 10
[44] = TRIS 5 mM, target cinacalcet 10 mg/mL, SBO conc. 20
[45] = TRIS 10 mM, target cinacalcet 5 mg/mL, SBO conc. 5
[46] = TRIS 15 mM, target cinacalcet 5 mg/mL, SBO conc. 5
[47] = TRIS 20 mM, target cinacalcet 5 mg/mL, SBO conc. 5

C[C@@H](NCCCc1cccc(C(F)(F)F)c1)c1cccc2ccccc12 [Cinacalcet, N-(1-(R)-(1-naphthyl)ethyl]-3-[3-(trifluoromethyl)phenyl]-1-aminopropane]
D(4, 3) [1, 4]: 0.39 µm | pH [1, 4]: 8.58 | D(4, 3) [1, 5]: 0.36 µm | pH [1, 5]: 9.12 | D(4, 3) [1, 6]: 0.35 µm | pH [1, 6]: 8.39 | D(4, 3) [1, 7]: 0.32 µm | PH [1, 7]: 8.97 | D(4, 3) [1, 8]: 0.53 µm | pH [1, 8]: 8.61 | D(4, 3) [1, 9]: 0.21 µm | pH [1, 9]: 9.09 | D(4, 3) [1, 10]: 0.4 µm | pH [1, 10]: 8.29 | D(4, 3) [1, 11]: 0.44 µm | PH [1, 11]: 8.99 | D(4, 3) [1, 12]: 0.57 µm | pH [1, 12]: 8.41 | D(4, 3) [1, 13]: 0.47 µm | pH [1, 13]: 8.81 | D(4, 3) [1, 14]: 0.42 µm | pH [1, 14]: 8.23 | D(4, 3) [1, 15]: 0.31 µm | PH [1, 15]: 8.95 | D(4, 3) [1, 16]: 1.07 µm | pH [1, 16]: 8.81 | D(4, 3) [1, 17]: 1.3 µm | pH [1, 17]: 8.94 | D(4, 3) [1, 18]: 0.77 µm | pH [1, 18]: 8.53 | D(4, 3) [1, 19]: 0.81 µm | PH [1, 19]: 8.99 | D(4, 3) [1, 20]: 0.65 µm | pH [1, 20]: 8.80 | D(4, 3) [1, 21]: 0.98 µm | pH [1, 21]: 8.86 | D(4, 3) [1, 22]: 0.68 µm | pH [1, 22]: 8.46 | D(4, 3) [1, 23]: 0.4 µm | PH [1, 23]: 8.91 | D(4, 3) [1, 24]: 1.42 µm | pH [1, 24]: 8.62 | D(4, 3) [1, 25]: 1.4 µm | pH [1, 25]: 8.73 | D(4, 3) [1, 26]: 1.06 µm | pH [1, 26]: 8.39 | D(4, 3) [1, 27]: 0.49 µm | PH [1, 27]: 8.82 | D(4, 3) [1, 28]: 0.72 µm | pH [1, 28]: 8.55 | pH ([1]; crude emulsion, STG 5%, 1% Purified Soy Lecithin): 9.09 | D(4, 3) [1, 29]: 0.52 µm | pH [1, 29]: 8.46 | PH ([1]; crude emulsion, STG 5%, % Purified Soy Lecithin): 9.04 | D(4, 3) [1, 30]: 1.23 µm | pH [1, 30]: 8.71 | pH ([1]; crude emulsion, STG 10%, 1% Purified Soy Lecithin): 9.00 | D(4, 3) [1, 31]: 0.81 µm | pH [1, 31]: 8.37 | PH ([1]; crude emulsion, STG 10%, % Purified Soy Lecithin): 9.01 | D(4, 3) [1, 32]: 0.84 µm | pH [1, 32]: 8.52 | pH ([1]; crude emulsion, STG 20%, 1% Purified Soy Lecithin): 8.99 | D(4, 3) [1, 33]: 1.18 µm | pH [1, 33]: 8.28 | PH ([1]; crude emulsion, STG 20%, % Purified Soy Lecithin): 9.07 | D(4, 3) ([1]; emulsion, STG 5%, 1% Purified Soy Lecithin, after a single autoclaving cycle): 0.40^a | D(4, 3) ([1]; emulsion, STG 5%, % Purified Soy Lecithin, after a single autoclaving cycle): 0.34^a | D(4, 3) ([1]; emulsion, STG 10%, 1% Purified Soy Lecithin, after a single autoclaving cycle): 0.73^a | D(4, 3) ([1]; emulsion, STG 10%, % Purified Soy Lecithin, after a single autoclaving cycle): 0.41^a | D(4, 3) ([1]; emulsion, STG 20%, % Purified Soy Lecithin, after a single autoclaving cycle): 0.46^a | D(4, 3) [2, 34]: 0.44 μm | pH [2, 34]: 8.81 | D(4, 3) [2, 35]: 0.39 μm | pH [2, 35]: 8.77 | D(4, 3) [2, 36]: 0.41 μm | pH [2, 36]: 8.82 | D(4, 3) [2, 37]: 0.40 μm | pH [2, 37]: 8.95 | D(4, 3) [2, 38]: 0.35 μm | pH [2, 38]: 9.13 | D(4, 3) [2, 39]: 0.36 μm | pH [2, 39]: 9.12 | D(4, 3) [2, 40]: 1.48 μm | pH [2, 40]: 8.45 | pH ([2]; PO4 buffer 10 mM (first of two emulsions), target cinacalcet 5 mg/mL, SBO conc. 5): 6.36 | pH ([2]; PO4 buffer 10 mM (second of two emulsions), target cinacalcet 5 mg/mL, SBO conc. 5): 6.78 | D(4, 3) ([2]; PO4 buffer 10 mM, pH 6.36, target cinacalcet 5 mg/mL, SBO conc. 5): 0.39 μm | D(4, 3) ([2]; PO4 buffer 10 mM, pH 6.78, target cinacalcet 5 mg/mL, SBO conc. 5): 0.76 μm | D(4, 3) [2, 41]: 1.59 μm | pH [2, 41]: 7.15 | D(4, 3) [2, 42]: 0.48 μm | pH [2, 42]: 8.75 | pH ([2]; TRIS 5 mM, target cinacalcet 5 mg/mL, SBO conc. 5): 8.80 | D(4, 3) [2, 43]: 0.32 μm | pH [2, 43]: 8.87 | pH ([2]; TRIS 5 mM, target cinacalcet 10 mg/mL, SBO conc. 10): 8.82 | D(4, 3) [2, 44]: 0.36 μm | pH [2, 44]: 8.82 | D(4, 3) [2, 45]: 0.30 μm | pH [2, 45]: 9.06 | D(4, 3) [2, 46]: 0.34 μm | pH [2, 46]: 9.04 | D(4, 3) [2, 47]: 0.29 μm | pH [2, 47]: 9.13 | D(4, 3) [3]: 0.94^a
